Reference: publication PMC11279465, “Dual Inhibitors of P-gp and Carbonic Anhydrase XII (hCA XII) against Tumor Multidrug Resistance with Piperazine Scaffold” (Molecules, 2024)

Assays:
hCA I = target: T1, hCA I (Homo sapiens, UniProt P00915); assay: CA inhibition, stopped-flow CO2 hydrase assay; assay type: biochemical; conditions: stopped-flow technique; incubation time 6 h; mean of 3 assays
T1 construct: made in house
Description: (§1) Four hCA isoforms were used in this assay: the cytosolic hCA I and II and the tumor-associated transmembrane hCA IX and XII isoforms. Acetazolamide (AAZ) was used as a standard inhibitor.
(§2) An SX.18MV-R Applied Photophysics (Oxford, UK) stopped-flow instrument has been used to assay the catalytic/inhibition of various CA isozymes. […] Saturated CO2 solutions in water at 25 °C were used as substrate. Stock solutions of inhibitors were prepared at a concentration of 10 μM (in DMSO-water 1:1, v/v) and dilutions up to 0.01 nM were carried out with the assay buffer mentioned above. […] Inhibitor and enzyme solutions were preincubated together for 6 h at room temperature prior to assay in order to allow for the formation of the E-I complex. […] The inhibition constants were obtained by non-linear least-squares methods using the Cheng–Prusoff equation, as reported earlier, and represent the mean from at least three different determinations.

hCA II = target: T2, hCA II (Homo sapiens, UniProt P00918); assay: CA inhibition, stopped-flow CO2 hydrase assay; assay type: biochemical; conditions: stopped-flow technique; incubation time 6 h; mean of 3 assays
T2 construct: made in house
Description: as §1, §2

hCA IX = target: T3, hCA IX (Homo sapiens, UniProt Q16790); assay: CA inhibition, stopped-flow CO2 hydrase assay; assay type: biochemical; conditions: stopped-flow technique; incubation time 6 h; mean of 3 assays
T3 construct: made in house
Description: as §1, §2

hCA XII = target: T4, hCA XII (Homo sapiens, UniProt O43570); assay: CA inhibition, stopped-flow CO2 hydrase assay; assay type: biochemical; conditions: stopped-flow technique; incubation time 6 h; mean of 3 assays
T4 construct: made in house
T4 sequence (O43570 25-354): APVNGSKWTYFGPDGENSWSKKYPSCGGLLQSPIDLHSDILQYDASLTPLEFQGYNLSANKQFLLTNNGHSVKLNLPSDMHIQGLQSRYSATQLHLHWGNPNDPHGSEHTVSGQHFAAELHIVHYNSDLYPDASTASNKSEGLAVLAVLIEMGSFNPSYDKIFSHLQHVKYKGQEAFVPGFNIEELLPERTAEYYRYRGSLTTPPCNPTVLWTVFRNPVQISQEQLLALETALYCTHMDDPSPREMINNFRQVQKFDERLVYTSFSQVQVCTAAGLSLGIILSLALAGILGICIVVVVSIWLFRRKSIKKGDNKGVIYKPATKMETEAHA
Description: as §1, §2

K562/DOX cells = assay: Doxorubicin cytotoxicity enhancement assay (MTT); assay type: cell-based, human; conditions: 72 h
Description: K562 is a highly undifferentiated erythroleukemia cell line. The doxorubicin-resistant K562/DOX cells overexpress almost exclusively the transporter membrane protein P-gp.
K562/DOX cells were incubated for 72 h with different concentrations of doxorubicin in combination with 1 or 3 µM of all compounds. […] HT29, A549, HT29/DOX and A549/DOX cells were incubated for 48 h with 5 µM doxorubicin, alone or in combination with 1 or 3 µM of selected compounds. Cell viability of the cell lines was measured by the MTT assay, using a Synergy HT microplate spectrofluorometer (Bio-Tek Instruments, Winooski, VT, USA). The absorbance of untreated cells was considered 100%; results were expressed as a percentage of viable treated cells versus the control untreated cells.

T1 sequence (P00915 whole entry): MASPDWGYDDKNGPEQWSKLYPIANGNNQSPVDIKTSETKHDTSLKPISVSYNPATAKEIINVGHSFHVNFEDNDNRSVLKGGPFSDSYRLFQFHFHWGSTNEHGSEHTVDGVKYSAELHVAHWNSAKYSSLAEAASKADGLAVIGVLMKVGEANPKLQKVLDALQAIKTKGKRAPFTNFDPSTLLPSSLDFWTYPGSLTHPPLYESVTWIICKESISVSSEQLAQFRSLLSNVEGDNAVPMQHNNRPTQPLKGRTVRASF

Structure (SMILES) | Ki (hCA I) [nM] | Ki (hCA II) [nM] | Ki (hCA IX) [nM] | Ki (hCA XII) [nM] | RF (Reversal Fold: IC50 of doxorubicin alone / in presence of modulator) (K562/DOX cells; compound at 1 µM) | RF (Reversal Fold: IC50 of doxorubicin alone / in presence of modulator) (K562/DOX cells; compound at 3 µM)
COc1cc(/C=C/CN2CCN(CCCOc3ccc4oc(=O)cc(C)c4c3)CC2)cc(OC)c1OC [Compound 11, (E)-4-Methyl-6-(3-(4-(3-(3,4,5-trimethoxyphenyl)allyl)piperazin-1-yl)propoxy)-2H-chromen-2-one] | > 10000 | > 10000 | 302 | 441 | 2.4 | 4.1
COc1ccc(C(CCCN2CCN(CCCCOc3ccc4c(C)cc(=O)oc4c3)CC2)c2ccc(OC)cc2)cc1 [Compound 30, 7-(4-(4-(4,4-Bis(4-methoxyphenyl)butyl)piperazin-1-yl)butoxy)-4-methyl-2H-chromen-2-one] | > 10000 | > 10000 | 124 | 82.4 | 7.7 | 
COc1cc(CN2CCN(CCCOc3ccc4oc(=O)cc(C)c4c3)CC2)cc(OC)c1OC [Compound 23, 4-Methyl-6-(3-(4-(3,4,5-trimethoxybenzyl)piperazin-1-yl)propoxy)-2H-chromen-2-one] | > 10000 | > 10000 | 242 | 304 | 1.6 | 1.8
COc1cc(CN2CCN(CCCCOc3ccc4c(C)cc(=O)oc4c3)CC2)cc(OC)c1OC [Compound 18, 4-Methyl-7-(4-(4-(3,4,5-trimethoxybenzyl)piperazin-1-yl)butoxy)-2H-chromen-2-one] | > 10000 | > 10000 | 28.5 | 72.1 | 1.9 | 3.2
COc1ccc(C(CCCN2CCN(CCCOc3ccc4ccc(=O)oc4c3)CC2)c2ccc(OC)cc2)cc1 [Compound 26, 7-(3-(4-(4,4-Bis(4-methoxyphenyl)butyl)piperazin-1-yl)propoxy)-2H-chromen-2-one] | > 10000 | > 10000 | 153 | 115 | 5.5 | 17.3
COc1cc(CN2CCN(CCOc3ccc4c(C)cc(=O)oc4c3)CC2)cc(OC)c1OC [Compound 16, 4-Methyl-7-(2-(4-(3,4,5-trimethoxybenzyl)piperazin-1-yl)ethoxy)-2H-chromen-2-one] | > 10000 | > 10000 | 8.2 | 51.9 | 1.0 | 1.4
COc1ccc(C(CCCN2CCN(CCOc3ccc4oc(=O)ccc4c3)CC2)c2ccc(OC)cc2)cc1 [Compound 31, 6-(2-(4-(4,4-Bis(4-methoxyphenyl)butyl)piperazin-1-yl)ethoxy)-2H-chromen-2-one] | > 10000 | > 10000 | 115 | 90.7 | 3.0 | 11.4
COc1cc(CN2CCN(CCCCOc3ccc4oc(=O)ccc4c3)CC2)cc(OC)c1OC [Compound 21, 6-(4-(4-(3,4,5-Trimethoxybenzyl)piperazin-1-yl)butoxy)-2H-chromen-2-one] | > 10000 | > 10000 | 50.3 | 15.9 | 3.9 | 4.1
COc1ccc(C(CCCN2CCN(CCOc3ccc4c(C)cc(=O)oc4c3)CC2)c2ccc(OC)cc2)cc1 [Compound 28, 7-(2-(4-(4,4-Bis(4-methoxyphenyl)butyl)piperazin-1-yl)ethoxy)-4-methyl-2H-chromen-2-one] | > 10000 | > 10000 | 135 | 103 |  | 
